Data reported in PubChem BioAssay (NCI).
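Step 1: Grow cells in 96-well plates. Step 2: Expose to compound for 48 hours at 5 concentrations. Step 3: Interpolate endpoints linearly; if unreached, use highest concentration. GI50 is the concentration that inhibits growth by half. TGI denotes the concentration required for complete inhibition of growth.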

Experiments:
Experiment in all cases: NCI tumour cell line growth inhibition, 48 h
SK-OV-3 ovarian = system: SK-OV-3 ovarian
SW-620 colon = system: SW-620 colon
SNB-75 CNS = system: SNB-75 CNS
UACC-62 melanoma = system: UACC-62 melanoma
IGROV1 ovarian = system: IGROV1 ovarian
SK-MEL-28 melanoma = system: SK-MEL-28 melanoma
M14 melanoma = system: M14 melanoma
HT29 colon = system: HT29 colon
BT-549 breast = system: BT-549 breast
HS 578T breast = system: HS 578T breast

With `Cc1cccc2c1CCC21OC(=O)c2c1ccc1ccccc21` (centres undefined) the TGI (SK-OV-3 ovarian) was > 100 µM, the TGI (SW-620 colon) was > 100 µM and the TGI (SNB-75 CNS) was > 100 µM. For the same compound, the TGI (UACC-62 melanoma) was > 100 µM, the TGI (IGROV1 ovarian) was > 100 µM and the TGI (SK-MEL-28 melanoma) was > 100 µM. For the same compound, the TGI (M14 melanoma) was 64.8 µM and the TGI (HT29 colon) was > 100 µM.
Compound `O=C(O)c1c(=O)cccc2ssc12` has a GI50 (SK-OV-3 ovarian) of 1.74 µM, a TGI (SK-OV-3 ovarian) of 3.26 µM and a GI50 (BT-549 breast) of 1.68 µM. It also gave a TGI (BT-549 breast) of 3.12 µM, a GI50 (SW-620 colon) of 2.22 µM and a TGI (SW-620 colon) of 5.59 µM. It also gave a GI50 (UACC-62 melanoma) of 2.09 µM, a TGI (UACC-62 melanoma) of 4.59 µM and a GI50 (IGROV1 ovarian) of 2.39 µM. The TGI (IGROV1 ovarian) was 5.91 µM, the GI50 (SK-MEL-28 melanoma) was 1.69 µM and the TGI (SK-MEL-28 melanoma) was 3.25 µM. For the same compound, the GI50 (M14 melanoma) was 1.92 µM, the TGI (M14 melanoma) was 4.07 µM and the GI50 (HT29 colon) was 1.89 µM. The TGI (HT29 colon) was 3.64 µM, the GI50 (HS 578T breast) was 2.43 µM and the TGI (HS 578T breast) was 5.54 µM.
For `N#Cc1cc(S(=O)(=O)Nc2nnc(-c3ccccc3)c(-c3ccccc3)n2)c(SCc2ccccc2)cc1Cl`, the GI50 (SK-OV-3 ovarian) was 23.4 µM, the TGI (SK-OV-3 ovarian) was 57.4 µM and the GI50 (BT-549 breast) was 30.9 µM. The TGI (BT-549 breast) was 89.6 µM, the GI50 (SW-620 colon) was 35.5 µM and the TGI (SW-620 colon) was > 100 µM. The GI50 (UACC-62 melanoma) was 20.5 µM, the TGI (UACC-62 melanoma) was 48.7 µM and the GI50 (IGROV1 ovarian) was 29.7 µM. For the same compound, the TGI (IGROV1 ovarian) was 83.5 µM, the GI50 (SK-MEL-28 melanoma) was 35.2 µM and the TGI (SK-MEL-28 melanoma) was 91.3 µM. It also gave a GI50 (M14 melanoma) of 27.4 µM, a TGI (M14 melanoma) of 80.4 µM and a GI50 (HS 578T breast) of 22.4 µM. It also gave a TGI (HS 578T breast) of 63.3 µM.
`O=C1C2C(C(=O)N1c1ccccc1)C1([N+](=O)[O-])C=C3c4ccccc4N(C(=O)c4ccccc4)C32C2C(=O)N(c3ccccc3)C(=O)C21` (centres undefined) was tested, and the TGI (SK-OV-3 ovarian) was > 100 µM, the TGI (SW-620 colon) was > 100 µM and the TGI (SNB-75 CNS) was > 100 µM. For the same compound, the TGI (UACC-62 melanoma) was > 100 µM, the TGI (IGROV1 ovarian) was > 100 µM and the TGI (SK-MEL-28 melanoma) was > 100 µM. For the same compound, the TGI (M14 melanoma) was > 100 µM and the TGI (HT29 colon) was > 100 µM.
In the case of `Cc1cccc(C(C)(C)C)c1NC(=O)CCc1nc(=S)[nH][nH]1`, the TGI (SK-OV-3 ovarian) is reported as > 100 µM, the TGI (SW-620 colon) is reported as > 100 µM and the TGI (SNB-75 CNS) is reported as > 100 µM. For the same compound, the TGI (UACC-62 melanoma) was > 100 µM, the TGI (IGROV1 ovarian) was > 100 µM and the TGI (SK-MEL-28 melanoma) was > 100 µM. For the same compound, the TGI (M14 melanoma) was > 100 µM and the TGI (HT29 colon) was > 100 µM.
In the case of `CN(C)CCNC(=O)Cn1cnc2cccc([N+](=O)[O-])c2c1=O`, the TGI (SK-OV-3 ovarian) is reported as > 100 µM, the TGI (SW-620 colon) is reported as > 100 µM and the TGI (UACC-62 melanoma) is reported as > 100 µM. For the same compound, the TGI (IGROV1 ovarian) was > 100 µM, the TGI (SK-MEL-28 melanoma) was > 100 µM and the TGI (M14 melanoma) was > 100 µM. For the same compound, the TGI (HT29 colon) was > 100 µM and the TGI (HS 578T breast) was > 100 µM.
For `CC(C)(C)c1ccc(OCCOCCOc2ccc(C(C)(C)C)cc2S(=O)(=O)Nc2ccc([N+](=O)[O-])cc2)c(S(=O)(=O)Nc2ccc([N+](=O)[O-])cc2)c1`, the TGI (SK-OV-3 ovarian) was > 100 µM, the TGI (SW-620 colon) was > 100 µM and the TGI (SNB-75 CNS) was > 100 µM. For the same compound, the TGI (UACC-62 melanoma) was > 100 µM, the TGI (IGROV1 ovarian) was > 100 µM and the TGI (SK-MEL-28 melanoma) was > 100 µM. The TGI (M14 melanoma) was > 100 µM and the TGI (HT29 colon) was > 100 µM.
